Data: the NIST ThermoML archive (doi:10.1021/je025610o)

What was measured:
[1] = 100 kPa, Liquid, Capillary tube (Ostwald / Ubbelohde) method
[2] = xn = mol fraction of the nth substance listed; settings: 100 kPa, Liquid; for thermal conductivity: Hot wire method

OCCOCCO [diethylene glycol]
[1]
Settings | viscosity [mPa·s]
294.2 K | 35.1
313.05 K | 15.1
333.05 K | 7.64
353.05 K | 4.41
373.6 K | 2.76
393.4 K | 1.92
413.25 K | 1.41
428.15 K | 1.15

OCCOCCOCCO [triethylene glycol]
[1]
Settings | viscosity [mPa·s]
299.65 K | 35.1
313.05 K | 19.5
333.1 K | 9.66
353.05 K | 5.55
373.5 K | 3.41
393.3 K | 2.36
413.25 K | 1.71
428.1 K | 1.39

OCCOCCO [diethylene glycol] + O
[2]
Settings | mass density [kg/m3] | thermal conductivity [W/m/K] | viscosity [mPa·s]
293.45 K, x1 = 0.5 | 1111 | – | 22
294.05 K, x1 = 0.75 | 1115 | – | 30.4
294.25 K, x1 = 0.25 | 1095 | – | 9.79
294.4 K, x1 = 0.25 | – | 0.291 | –
295.9 K, x1 = 0.5 | – | 0.235 | –
296.4 K, x1 = 0.75 | – | 0.209 | –
312.95 K, x1 = 0.5 | 1097 | – | 9.64
313.05 K, x1 = 0.25 | 1081 | – | 4.88
313.05 K, x1 = 0.75 | 1101 | – | 13.3
322.1 K, x1 = 0.5 | – | 0.244 | –
323.4 K, x1 = 0.25 | – | 0.31 | –
323.8 K, x1 = 0.75 | – | 0.213 | –
332.95 K, x1 = 0.5 | 1082 | – | 5.03
333.05 K, x1 = 0.25 | 1066 | – | 2.76
333.05 K, x1 = 0.75 | 1087 | – | 6.75
347.4 K, x1 = 0.25 | – | 0.315 | –
347.8 K, x1 = 0.5 | – | 0.249 | –
349.6 K, x1 = 0.75 | – | 0.217 | –
352.95 K, x1 = 0.5 | 1066 | – | 3.01
353.05 K, x1 = 0.75 | 1071 | – | 3.9
353.15 K, x1 = 0.25 | 1051 | – | 1.76
371.9 K, x1 = 0.5 | – | 0.258 | –
373 K, x1 = 0.25 | – | 0.322 | –
373.2 K, x1 = 0.75 | – | 0.219 | –
380.05 K, x1 = 0.5 | 1043 | – | –
381.45 K, x1 = 0.25 | 1027 | – | –
382.55 K, x1 = 0.5 | – | – | 1.66
382.55 K, x1 = 0.75 | 1048 | – | –
384.95 K, x1 = 0.25 | – | – | 1.03
385.05 K, x1 = 0.75 | – | – | 2
390.25 K, x1 = 0.5 | 1035 | – | –
390.95 K, x1 = 0.75 | 1042 | – | –
392.75 K, x1 = 0.25 | 1017 | – | –
394.25 K, x1 = 0.5 | – | – | 1.37
394.95 K, x1 = 0.75 | – | – | 1.72
395.6 K, x1 = 0.5 | – | 0.257 | –
396 K, x1 = 0.25 | – | 0.325 | –
396.75 K, x1 = 0.25 | – | – | 0.912
396.9 K, x1 = 0.75 | – | 0.217 | –
405.35 K, x1 = 0.5 | 1023 | – | –
406.95 K, x1 = 0.75 | 1029 | – | –
409.25 K, x1 = 0.25 | 1004 | – | –
409.35 K, x1 = 0.5 | – | – | 1.12
410.95 K, x1 = 0.75 | – | – | 1.35
413.25 K, x1 = 0.25 | – | – | 0.743
421.5 K, x1 = 0.25 | – | 0.33 | –
421.6 K, x1 = 0.75 | – | 0.222 | –
422 K, x1 = 0.5 | – | 0.256 | –
424.25 K, x1 = 0.5 | 1006 | – | –
424.65 K, x1 = 0.75 | 1014 | – | –
426.35 K, x1 = 0.25 | 987.6 | – | –
428.25 K, x1 = 0.5 | – | – | 0.865
428.65 K, x1 = 0.75 | – | – | 1.05
430.35 K, x1 = 0.25 | – | – | 0.61
441.65 K, x1 = 0.25 | 973.3 | – | –
443.05 K, x1 = 0.5 | 988.2 | – | –
443.65 K, x1 = 0.75 | 996.3 | – | –
445.65 K, x1 = 0.25 | – | – | 0.521
446.8 K, x1 = 0.75 | – | 0.213 | –
447 K, x1 = 0.5 | – | 0.253 | –
447.05 K, x1 = 0.5 | – | – | 0.707
447.5 K, x1 = 0.25 | – | 0.328 | –
447.65 K, x1 = 0.75 | – | – | 0.838

OCCO [1,2-ethanediol]
[1]
Settings | viscosity [mPa·s]
295.55 K | 19.1
313.05 K | 9.74
333.1 K | 5.24
353.05 K | 3.13
372.15 K | 2.06
392.45 K | 1.44
412.25 K | 1.07
428.3 K | 0.867
